Results reported in patent publication US7829585B2, “Antifungal agent containing pyridine derivative” (Eisai R&D Management Co., Ltd., priority 2005, dated 2010).
Converted amounts (≈) assume the structure as drawn.

Legend:
[1] = tested on: C. albicans E81022 strain; test: Anti-Candida activity, MIC measurement (broth dilution, visual inspection); assay type: cell-based; conditions: C. albicans E81022, RPMI1640, 48 hours at 35° C.; for MIC: Candida albicans, E81022STRAIN, read-out: Anti-Candida activity (minimum growth inhibitory concentration, MIC)
Method: (§1) For the C. albicans E81022 strain, a fungal suspension from a standing culture 48 hours at 30° C. in a Sabouraud dextrose liquid culture medium (SDB) was diluted 10000-fold with 1.3-times concentrated RPMI1640 medium to prepare a fungal suspension containing 1 to 2×10^4 cells/ml. For the A. fumigatus Tsukuba strain, −80° C. stored strain was diluted 1000-fold with 1.3-times concentrated RPMI1640 medium to prepare a fungal suspension containing 2 to 3×10^3 cells/ml.
(§2) Using a U-shaped bottomed 96-well plates, 8 samples/plate (A to H) of sample dilution solutions were prepared. On the first row was dispensed 240 μl of sterile distilled water, and on the 2nd to 12th row were dispersed 125 μL of 4% dimethylsulfoxide solution. Weighed sample was dissolved in dimethylsulfoxide to prepare a 5 mg/ml solution followed by adding 10 μL of the solutions to the first row of the prepared plates and preparing 12-step serial 2-fold dilutions (125 μL of solution+125 μL of 4% dimethylsulfoxide solution) on the plates.
(§3) The fungal suspension prepared in (1) was used in the amount of 75 μL/well to inoculate the flat-bottomed 96-well plates containing 25 μL/well of the test compound prepared in (2), and a standing culture was carried out aerobically for 48 hours at 35° C.

[2] = tested on: A. fumigatus Tsukuba strain; test: Anti-Aspergillus activity, MIC measurement (broth dilution, visual inspection); assay type: cell-based; conditions: RPMI1640, 48 hours at 35° C., read-out: Anti-Aspergillus activity (minimum growth inhibitory concentration, MIC)
Method: as §1, §2, §3

Compound	Anti-Candida activity (minimum growth inhibitory concentration, MIC) [1] [µg/mL]	MIC [1] [µg/mL]	MIC [2] [µg/mL]
2,6-Diamino-N-(6-(2-phenoxy-ethoxy)-benzofuran-2-ylmethyl)-nicotinamide [Example 80]	3.13	–	–
CC#CCOc1ccc2cc(CNC(=O)c3ccc(N)nc3N)oc2c1 [Example 8, 2,6-Diamino-N-(6-but-2-ynyloxy-benzofuran-2-ylmethyl)-nicotinamide]	–	1.56 (≈ 4.45 µM)	–
CCCCCOc1ccc2cc(CNC(=O)c3ccc(N)nc3N)oc2c1 [Example 12, 2,6-Diamino-N-(6-pentyloxy-benzofuran-2-ylmethyl)-nicotinamide]	–	0.78 (≈ 2.12 µM)	1.56 (≈ 4.23 µM)
CC(C)COc1ccc2cc(CNC(=O)c3ccc(N)nc3N)oc2c1 [Example 13, 2,6-Diamino-N-(6-isobutoxy-benzofuran-2-ylmethyl)-nicotinamide]	–	0.39 (≈ 1.1 µM)	1.56 (≈ 4.4 µM)
CC(C)CCOc1ccc2cc(CNC(=O)c3ccc(N)nc3N)oc2c1 [Example 14, 2,6-Diamino-N-(6-(3-methyl-butoxy)-benzofuran-2-ylmethyl)-nicotinamide]	–	1.56 (≈ 4.23 µM)	–
CC(C)(C)COc1ccc2cc(CNC(=O)c3ccc(N)nc3N)oc2c1 [Example 16, 2,6-Diamino-N-(6-(2,2-dimethyl-propoxy)-benzofuran-2-ylmethyl)-nicotinamide]	–	3.13 (≈ 8.5 µM)	6.25 (≈ 17 µM)
CC(C)=CCOc1ccc2cc(CNC(=O)c3ccc(N)nc3N)oc2c1 [Example 17, 2,6-Diamino-N-(6-(3-methyl-but-2-enyloxy)-benzofuran-2-ylmethyl)-nicotinamide]	–	0.78 (≈ 2.13 µM)	–
Nc1ccc(C(=O)NCc2cc3ccc(OCc4cccc(F)c4)cc3o2)c(N)n1 [Example 22, 2,6-Diamino-N-(6-(3-fluoro-benzyloxy)-benzofuran-2-ylmethyl)-nicotinamide]	–	0.39 (≈ 0.96 µM)	1.56 (≈ 3.84 µM)
Nc1ccc(C(=O)NCc2cc3ccc(OCc4ccccc4F)cc3o2)c(N)n1 [Example 23, 2,6-Diamino-N-(6-(2-fluoro-benzyloxy)-benzofuran-2-ylmethyl)-nicotinamide]	1.56	–	–
CCCCOc1ccc2cc(CNC(=O)c3ccc(COC)nc3N)oc2c1 [Example 25, 2-Amino-N-(6-butoxy-benzofuran-2-ylmethyl)-6-methoxymethyl-nicotinamide]	–	0.78 (≈ 2.03 µM)	–
COCc1ccc(C(=O)NCc2cc3ccc(OCC4CCCCO4)cc3o2)c(N)n1 (stereo not drawn) [Example 33, 2-Amino-6-methoxymethyl-N-(6-(tetrahydro-pyran-2-ylmethoxy)-benzofuran-2-ylmethyl)-nicotinamide]	–	12.5 (≈ 29.4 µM)	–
CCCOc1ccc2cc(CNC(=O)c3ccc(COC)nc3N)oc2c1 [Example 37, 2-Amino-6-methoxymethyl-N-(6-propoxy-benzofuran-2-ylmethyl)-nicotinamide]	–	0.2 (≈ 0.541 µM)	–
CCOCCOc1ccc2cc(CNC(=O)c3ccc(COC)nc3N)oc2c1 [Example 41, 2-Amino-N-(6-(2-ethoxy-ethoxy)-benzofuran-2-ylmethyl)-6-methoxymethyl-nicotinamide]	–	3.13 (≈ 7.84 µM)	–
COCc1ccc(C(=O)NCc2cc3ccc(OCc4ccncc4)cc3o2)c(N)n1 [Example 46, 2-Amino-6-methoxymethyl-N-(6-(pyridin-4-ylmethoxy)-benzofuran-2-ylmethyl)-nicotinamide]	–	0.39 (≈ 0.932 µM)	–
COCc1ccc(C(=O)NCc2cc3ccc(OCC4CC4)cc3[nH]2)c(N)n1 [Example 73, 2-Amino-N-(6-cyclopropylmethoxy-1H-indol-2-ylmethyl)-6-methoxymethyl-nicotinamide]	–	–	25 (≈ 65.7 µM)
COCc1ccc(C(=O)NCc2cc3cc(Br)ccc3o2)c(N)n1 [Example 79, 2-Amino-N-(5-bromo-benzofuran-2-ylmethyl)-6-methoxymethyl-nicotinamide]	–	–	12.5 (≈ 32 µM)
CCOCc1ccc2oc(CNC(=O)c3ccc(COC)nc3N)cc2c1 [Example 81, 2-Amino-N-(5-ethoxymethyl-benzofuran-2-ylmethyl)-6-methoxymethyl-nicotinamide]	–	–	6.25 (≈ 16.9 µM)
